Experimental data: US10308644B2, “Heterocyclic compounds as immunomodulators” (Incyte Corporation, priority 2016, dated 2019)

What follows are molecules tested against PD-1/PD-L1 (Homo sapiens (Human), UniProt Q9NZQ7) (assay: PD-1/PD-L1 Homogeneous Time-Resolved Fluorescence (HTRF) Binding Assay). Details: recombinant human PD-1 (3 nM) and PD-L1 (10 nM), 25° C., PBS pH 7.4.
Outline: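 Fc-tagged human PD-1 (25-167, 3 nM) and His-tagged PD-L1 (19-238, 10 nM) preincubated with inhibitor 40 min in PBS pH 7.4, 0.05% Tween-20, 0.1% BSA, 1% DMSO, 25 °C. Binding detected by HTRF (Eu anti-IgG/APC anti-His, 665/620 nm) after 60 min; IC50 from percent control activity.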

Sequence of PD-1/PD-L1 (Q9NZQ7 19-238): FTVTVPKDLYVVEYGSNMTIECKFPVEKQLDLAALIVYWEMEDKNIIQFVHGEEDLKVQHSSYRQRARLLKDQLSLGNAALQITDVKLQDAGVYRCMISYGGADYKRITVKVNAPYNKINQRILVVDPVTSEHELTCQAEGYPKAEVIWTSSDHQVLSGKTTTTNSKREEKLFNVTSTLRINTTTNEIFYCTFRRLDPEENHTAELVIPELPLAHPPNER

IC50, ≤ 0.01 µM:
Cc1c(Nc2nccc3cc(CN4CC[C@@H](O)C4)cnc23)cccc1-c1cccc(-c2nc3cc(CN[C@H]4CC[C@@H](C(=O)O)C4)cc(C#N)c3o2)c1C [Example 169, (1R,3S)-3-((7-cyano-2-(3′-(3-(((R)-3-hydroxypyrrolidin-1-yl)methyl)-1,7-naphthyridin-8-ylamino)-2,2′-dimethylbiphenyl-3-yl)benzo[d]oxazol-5-yl)methylamino)cyclopentanecarboxylic acid]
Cc1c(Nc2nccc3cc(CNCCO)cnc23)cccc1-c1cccc(-c2nc3cc(CN4CCCC[C@H]4C(=O)O)cc(Cl)c3o2)c1C [Example 3, (S)-1-((7-chloro-2-(3′-((3-(((2-hydroxyethyl)amino)methyl)-1,7-naphthyridin-8-yl)amino)-2,2′-dimethyl-[1,1′-biphenyl]-3-yl)benzo[d]oxazol-5-yl)methyl)piperidine-2-carboxylic acid]
Cc1c(Nc2nccc3cc(CN4CC[C@@H](O)C4)cnc23)cccc1-c1cccc(-c2nc3cc(CN[C@H]4C[C@@H](C(=O)O)C4)cc(C#N)c3o2)c1C [Example 180, cis-3-((7-cyano-2-(3′-(3-(((R)-3-hydroxypyrrolidin-1-yl)methyl)-1,7-naphthyridin-8-ylamino)-2,2′-dimethylbiphenyl-3-yl)benzo [d]oxazol-5-yl)methylamino)cyclobutane carboxylic acid]
Cc1c(Nc2nccc3cc(CN4CC[C@@](C)(O)C4)cnc23)cccc1-c1cccc(-c2nc3cc(CN4CC[C@@H](C(=O)O)C4)cc(C#N)c3o2)c1C [Example 137, (R)-1-((7-cyano-2-(3′-(3-(((R)-3-hydroxy-3-methylpyrrolidin-1-yl)methyl)-1,7-naphthyridin-8-ylamino)-2,2′-dimethylbiphenyl-3-yl)benzo[d]oxazol-5-yl)methyl)pyrrolidine-3-carboxylic acid]
Cc1c(Nc2nccc3cc(CN4CC[C@@H](O)C4)cnc23)cccc1-c1cccc(-c2nc3cc(CN4CC(C(=O)O)C4)cc(C#N)c3o2)c1C [Example 85, (R)-1-((7-cyano-2-(3′-(3-((3-hydroxypyrrolidin-1-yl)methyl)-1,7-naphthyridin-8-ylamino)-2,2′-dimethylbiphenyl-3-yl)benzo[d]oxazol-5-yl)methyl)azetidine-3-carboxylic acid]
CNCc1cnc2c(Nc3cccc(-c4cccc(-c5nc6cc(CN7CC[C@@](C)(C(=O)O)C7)cc(C#N)c6o5)c4C)c3C)nccc2c1 [Example 197, (R)-1-((7-cyano-2-(2,2′-dimethyl-3′-(3-((methylamino)methyl)-1,7-naphthyridin-8-ylamino)biphenyl-3-yl)benzo[d]oxazol-5-yl)methyl)-3-methylpyrrolidine-3-carboxylic acid]
Cc1c(-c2nc3cc(CN4CC[C@@](C)(C(=O)O)C4)cc(C#N)c3o2)cccc1-c1cccc(NC(=O)c2nc3c(n2C)CC(C)NC3)c1Cl (stereo partly drawn) [Example 163, (3R)-1-((2-(2′-chloro-3′-(1,6-dimethyl-4,5,6,7-tetrahydro-1H-imidazo[4,5-c]pyridine-2-carboxamido)-2-methylbiphenyl-3-yl)-7-cyanobenzo[d]oxazol-5-yl)methyl)-3-methylpyrrolidine-3-carboxylic acid]
Cc1c(-c2nc3c(o2)CN(C(=O)CN(C)C)C3)cccc1-c1cccc(-c2nc3cc(CN4CC[C@@](C)(C(=O)O)C4)cc(C#N)c3o2)c1C [Example 245, (R)-1-((7-cyano-2-(3′-(5-(dimethylglycyl)-5,6-dihydro-4H-pyrrolo[3,4-d]oxazol-2-yl)-2,2′-dimethyl[1,1′-biphenyl]-3-yl)benzo[d]oxazol-5-yl)methyl)-3-methylpyrrolidine-3-carboxylic acid]
Cc1c(Nc2nccc3c(CN4CC[C@H](O)C4)ccnc23)cccc1-c1cccc(-c2nc3cc(CN4CC[C@@H](C(=O)O)C4)cc(C#N)c3o2)c1C [Example 145, (R)-1-((7-cyano-2-(3′-((4-(((S)-3-hydroxypyrrolidin-1-yl)methyl)-1,7-naphthyridin-8-yl)amino)-2,2′-dimethyl-[1,1′-biphenyl]-3-yl)benzo[d]oxazol-5-yl)methyl)pyrrolidine-3-carboxylic acid]
Cc1c(-c2nc3cc(CN4CC[C@H](C(=O)O)C4)cc(C#N)c3o2)cccc1-c1cccc(Nc2nccc3cc(CN4CC[C@H](O)C4)cnc23)c1Cl [Example 33, (S)-1-((2-(2′-chloro-3′-(3-(((S)-3-hydroxypyrrolidin-1-yl)methyl)-1,7-naphthyridin-8-ylamino)-2-methylbiphenyl-3-yl)-7-cyanobenzo[d]oxazol-5-yl)methyl)pyrrolidine-3-carboxylic acid]
Cc1c(-c2nc3cc(CN4CC[C@@H](C(=O)O)C4)cc(C#N)c3o2)cccc1-c1cccc(NC(=O)c2nc3c(n2C)CCN(C)C3)c1Cl [Example 53, (R)-1-((2-(2′-chloro-3′-(1,5-dimethyl-4,5,6,7-tetrahydro-1H-imidazo[4,5-c]pyridine-2-carboxamido)-2-methylbiphenyl-3-yl)-7-cyanobenzo[d]oxazol-5-yl)methyl)pyrrolidine-3-carboxylic acid]
CCN1CCc2cn(-c3cccc(-c4cccc(-c5nc6cc(CN7CC[C@@H](C(=O)O)C7)cc(C#N)c6o5)c4C)c3Cl)nc2C1 [Example 58, (R)-1-((2-(2′-chloro-3′-(6-ethyl-4,5,6,7-tetrahydro-2H-pyrazolo[3,4-c]pyridin-2-yl)-2-methylbiphenyl-3-yl)-7-cyanobenzo[d]oxazol-5-yl)methyl)pyrrolidine-3-carboxylic acid]
Cc1c(-c2nc3c(o2)CN(C(=O)CN2CCC2)C3)cccc1-c1cccc(-c2nc3cc(CN4CC[C@@H](C(=O)O)C4)cc(C#N)c3o2)c1C [Example 130, (R)-1-((2-(3′-(5-(2-(azetidin-1-yl)acetyl)-5,6-dihydro-4H-pyrrolo[3,4-d]oxazol-2-yl)-2,2′-dimethyl-[1,1′-biphenyl]-3-yl)-7-cyanobenzo[d]oxazol-5-yl)methyl)pyrrolidine-3-carboxylic acid]
Cc1c(Nc2nccc3cc(CN[C@H](C)CO)cnc23)cccc1-c1cccc(-c2nc3cc(CN4CC[C@@](C)(C(=O)O)C4)cc(C#N)c3o2)c1C [Example 196, (R)-1-((7-cyano-2-(3′-(3-(((R)-1-hydroxypropan-2-ylamino)methyl)-1,7-naphthyridin-8-ylamino)-2,2′-dimethylbiphenyl-3-yl)benzo[d]oxazol-5-yl)methyl)-3-methylpyrrolidine-3-carboxylic acid]
Cc1c(-c2nc3cc(CN4CC[C@@H](O)C4)cc(C#N)c3o2)cccc1-c1cccc(NC(=O)c2nc3c(n2C)CCN(CC2CCC(C)(C(=O)O)CC2)C3)c1Cl (single isomer, unassigned; peak 1) [Example 268]
Cc1c(Nc2nccc3cc(CN4CC[C@@H](O)C4)cnc23)cccc1-c1cccc(-c2nc3cc(CN[C@H]4CC[C@H](CC(=O)O)CC4)cc(C#N)c3o2)c1C [Example 184, 2-(trans-4-((7-cyano-2-(3′-(3-(((R)-3-hydroxypyrrolidin-1-yl)methyl)-1,7-naphthyridin-8-ylamino)-2,2′-dimethylbiphenyl-3-yl)benzo[d]oxazol-5-yl)methylamino)cyclohexyl)acetic acid]
Cc1c(-c2nc3cc(CN4CC[C@@H](O)C4)cc(C#N)c3o2)cccc1-c1cccc(-c2nc3c(s2)CN(C(C)C)CC3)c1C [Example 121, (R)-5-((3-hydroxypyrrolidin-1-yl)methyl)-2-(3′-(5-isopropyl-4,5,6,7-tetrahydrothiazolo[5,4-c]pyridin-2-yl)-2,2′-dimethyl-[1,1′-biphenyl]-3-yl)benzo[d]oxazole-7-carbonitrile]
Cc1c(-c2nc3cc(CN4CC[C@@H](C(=O)O)C4)cc(C#N)c3o2)cccc1-c1cccc(-n2cc3c(n2)CN(C(C)C)C3)c1Cl [Example 56, (R)-1-((2-(2′-chloro-3′-(5-isopropyl-5,6-dihydropyrrolo[3,4-c]pyrazol-2(4H)-yl)-2-methylbiphenyl-3-yl)-7-cyanobenzo[d]oxazol-5-yl)methyl)pyrrolidine-3-carboxylic acid]
Cc1c(-c2nc3cc(CN4CC5(CC(C(=O)O)C5)C4)cc(C#N)c3o2)cccc1-c1cccc(-c2nc3c(s2)CN(C(=O)CN2CC[C@@H](O)C2)C3)c1C [Example 234, 2-((7-cyano-2-(3′-(5-(2-((R)-3-hydroxypyrrolidin-1-yl)acetyl)-5,6-dihydro-4H-pyrrolo[3,4-d]thiazol-2-yl)-2,2′-dimethylbiphenyl-3-yl)benzo[d]oxazol-5-yl)methyl)-2-azaspiro[3.3]heptane-6-carboxylic acid]
Cc1c(-c2nc3c(o2)CN(C(=O)CN2CCCC[C@H]2C(=O)O)C3)cccc1-c1cccc(-c2nc3cc(CN4CC[C@@H](O)C4)cc(C#N)c3o2)c1C [Example 133, (S)-1-(2-(2-(3′-(7-cyano-5-(((R)-3-hydroxypyrrolidin-1-yl)methyl)benzo[d]oxazol-2-yl)-2,2′-dimethyl-[1,1′-biphenyl]-3-yl)-4,6-dihydro-5H-pyrrolo[3,4-d]oxazol-5-yl)-2-oxoethyl)piperidine-2-carboxylic acid]
Cc1c(-c2nc3cc(CN4CC[C@@H](C(=O)O)C4)cc(Cl)c3o2)cccc1-c1cccc(Nc2nccc3cc(CN4CC[C@H](O)C4)cnc23)c1Cl [Example 29, (R)-1-((7-chloro-2-(2′-chloro-3′-(3-(((S)-3-hydroxypyrrolidin-1-yl)methyl)-1,7-naphthyridin-8-ylamino)-2-methylbiphenyl-3-yl)benzo[d]oxazol-5-yl)methyl)pyrrolidine-3-carboxylic acid]
